In PubChem BioAssay (NCI):
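Growth conditions: 96-well plates. Treatment: test compound, 48 hours, 5 concentrations. Analysis: linear interpolation between bracketing concentrations; unreached endpoints set to highest concentration. GI50 marks 50% less growth. TGI: concentration producing complete growth inhibition.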

Key:
Assay in all cases: DTP human tumour cell line panel, 48 h
MOLT-4 leukemia = tested on: MOLT-4 leukemia
MDA-MB-435 = tested on: MDA-MB-435
SK-MEL-28 melanoma = tested on: SK-MEL-28 melanoma
RPMI-8226 leukemia = tested on: RPMI-8226 leukemia
PC-3 prostate = tested on: PC-3 prostate
OVCAR-5 ovarian = tested on: OVCAR-5 ovarian
NCI/ADR-RES ovarian = tested on: NCI/ADR-RES ovarian
NCI-H226 lung = tested on: NCI-H226 lung
EKVX NSCLC = tested on: EKVX NSCLC
RXF 393 renal = tested on: RXF 393 renal
NCI-H460 lung = tested on: NCI-H460 lung
HOP-92 NSCLC = tested on: HOP-92 NSCLC
SK-MEL-2 melanoma = tested on: SK-MEL-2 melanoma
CAKI-1 renal = tested on: CAKI-1 renal
K-562 leukemia = tested on: K-562 leukemia
UO-31 renal = tested on: UO-31 renal
SF-268 CNS = tested on: SF-268 CNS
SK-OV-3 ovarian = tested on: SK-OV-3 ovarian
T-47D breast = tested on: T-47D breast
HT29 colon = tested on: HT29 colon
HOP-62 NSCLC = tested on: HOP-62 NSCLC
CCRF-CEM leukemia = tested on: CCRF-CEM leukemia
NCI-H522 lung = tested on: NCI-H522 lung
ACHN renal = tested on: ACHN renal
OVCAR-4 ovarian = tested on: OVCAR-4 ovarian
HCC-2998 colon = tested on: HCC-2998 colon
MALME-3M melanoma = tested on: MALME-3M melanoma
HCT-116 colon = tested on: HCT-116 colon
COLO 205 colon = tested on: COLO 205 colon
MCF7 breast = tested on: MCF7 breast
HS 578T breast = tested on: HS 578T breast
UACC-257 melanoma = tested on: UACC-257 melanoma
SN12C renal = tested on: SN12C renal
NCI-H23 lung = tested on: NCI-H23 lung
BT-549 breast = tested on: BT-549 breast
SK-MEL-5 melanoma = tested on: SK-MEL-5 melanoma
A498 renal = tested on: A498 renal
UACC-62 melanoma = tested on: UACC-62 melanoma
786-0 renal = tested on: 786-0 renal
HL-60(TB) leukemia = tested on: HL-60(TB) leukemia
U251 CNS = tested on: U251 CNS
TK-10 renal = tested on: TK-10 renal
SR leukemia = tested on: SR leukemia
OVCAR-3 ovarian = tested on: OVCAR-3 ovarian
DU-145 prostate = tested on: DU-145 prostate
HCT-15 colon = tested on: HCT-15 colon
LOX IMVI melanoma = tested on: LOX IMVI melanoma
SF-295 CNS = tested on: SF-295 CNS
SNB-75 CNS = tested on: SNB-75 CNS
MDA-MB-231 breast = tested on: MDA-MB-231 breast
KM12 colon = tested on: KM12 colon
SF-539 CNS = tested on: SF-539 CNS
A549 NSCLC = tested on: A549 NSCLC
OVCAR-8 ovarian = tested on: OVCAR-8 ovarian
IGROV1 ovarian = tested on: IGROV1 ovarian
SW-620 colon = tested on: SW-620 colon
SNB-19 CNS = tested on: SNB-19 CNS

## O=C(/C=C/c1ccccn1)c1ccccc1
MOLT-4 leukemia
  GI50: 3.1 µM
  TGI: 27.6 µM
MDA-MB-435
  GI50: 7.85 µM
  TGI: 24.9 µM
SK-MEL-28 melanoma
  GI50: 6.09 µM
  TGI: 19.2 µM
RPMI-8226 leukemia
  GI50: 2.37 µM
  TGI: 6.6 µM
PC-3 prostate
  GI50: 4.22 µM
  TGI: 17 µM
OVCAR-5 ovarian
  GI50: 6.52 µM
  TGI: 24.1 µM
NCI/ADR-RES ovarian
  GI50: 3.01 µM
  TGI: 12.1 µM
NCI-H226 lung
  GI50: 15.2 µM
  TGI: 29.7 µM
EKVX NSCLC
  GI50: 15.4 µM
  TGI: 31.2 µM
RXF 393 renal
  GI50: 3.17 µM
  TGI: 13.1 µM
NCI-H460 lung
  GI50: 4.44 µM
  TGI: 18.1 µM
HOP-92 NSCLC
  GI50: 10.4 µM
  TGI: 23.6 µM
SK-MEL-2 melanoma
  GI50: 8.32 µM
  TGI: 21 µM
CAKI-1 renal
  GI50: 3.28 µM
  TGI: 12.3 µM
K-562 leukemia
  GI50: 2.53 µM
  TGI: > 100 µM
UO-31 renal
  GI50: 12.2 µM
  TGI: 29.9 µM
SF-268 CNS
  GI50: 19.4 µM
  TGI: 36.4 µM
SK-OV-3 ovarian
  GI50: 16.8 µM
  TGI: 30.5 µM
T-47D breast
  GI50: 4.87 µM
  TGI: 24.4 µM
HT29 colon
  GI50: 1.99 µM
  TGI: 4.3 µM
HOP-62 NSCLC
  GI50: 10.2 µM
  TGI: 22 µM
CCRF-CEM leukemia
  GI50: 2.43 µM
  TGI: 6.61 µM
NCI-H522 lung
  GI50: 1.65 µM
  TGI: 3.1 µM
ACHN renal
  GI50: 2.44 µM
  TGI: 6.2 µM
OVCAR-4 ovarian
  GI50: 5.06 µM
  TGI: 18.3 µM
HCC-2998 colon
  GI50: 15.4 µM
  TGI: 29.9 µM
MALME-3M melanoma
  GI50: 13.8 µM
  TGI: 35.1 µM
HCT-116 colon
  GI50: 1.49 µM
  TGI: 3.77 µM
COLO 205 colon
  GI50: 4.04 µM
  TGI: 14.6 µM
MCF7 breast
  GI50: 2.07 µM
  TGI: 8.46 µM
HS 578T breast
  GI50: 12.5 µM
  TGI: 39.4 µM
UACC-257 melanoma
  GI50: 2.68 µM
  TGI: 9.25 µM
SN12C renal
  GI50: 4.33 µM
  TGI: 17.1 µM
NCI-H23 lung
  GI50: 16.3 µM
  TGI: 34.8 µM
BT-549 breast
  GI50: 14.4 µM
  TGI: 27.6 µM
SK-MEL-5 melanoma
  GI50: 12.1 µM
  TGI: 24.8 µM
A498 renal
  GI50: 14.9 µM
  TGI: 28.3 µM
UACC-62 melanoma
  GI50: 2.33 µM
  TGI: 7 µM
786-0 renal
  GI50: 2.84 µM
  TGI: 10.7 µM
HL-60(TB) leukemia
  GI50: 1.88 µM
  TGI: 6.75 µM
U251 CNS
  GI50: 1.94 µM
  TGI: 5.43 µM
TK-10 renal
  GI50: 12.8 µM
  TGI: 25.6 µM
SR leukemia
  GI50: 1.96 µM
  TGI: 14.1 µM
OVCAR-3 ovarian
  GI50: 9.5 µM
  TGI: 21.4 µM
DU-145 prostate
  GI50: 13.1 µM
  TGI: 25.7 µM
HCT-15 colon
  GI50: 2.66 µM
  TGI: 12.9 µM
LOX IMVI melanoma
  GI50: 1.63 µM
  TGI: 3.08 µM
SF-295 CNS
  GI50: 15.7 µM
  TGI: 32.2 µM
SNB-75 CNS
  GI50: 5.57 µM
  TGI: 21 µM
MDA-MB-231 breast
  GI50: 9.92 µM
  TGI: 23.8 µM
KM12 colon
  GI50: 4.13 µM
  TGI: 15.5 µM
SF-539 CNS
  GI50: 4.37 µM
  TGI: 18.3 µM
A549 NSCLC
  GI50: 14.4 µM
  TGI: 29.4 µM
OVCAR-8 ovarian
  GI50: 4.18 µM
  TGI: 16.1 µM
IGROV1 ovarian
  GI50: 3.84 µM
  TGI: 85.3 µM
SW-620 colon
  GI50: 2.02 µM
  TGI: 4.1 µM
SNB-19 CNS
  GI50: 12 µM
  TGI: 26.7 µM
